We go through one compound from patent US20260191933A1, “PHARMACEUTICAL COMBINATIONS AND USES THEREOF” (The University of Melbourne, priority 2022, published 2026).

Test [1] deals with 12-week obese AgRP-Cas9 mice. As to the kind of experiment: I.C.V. fluorosamine in obese AgRP-Cas9 mice given AAV-gScrambled or AAV-gIR. It is filed as in vivo. The protocol: To disassemble the CSPG-ECM within the ARC, mice received bilaterally (unless stated otherwise) administration of 15 mU/side of active chABC (C3667, Sigma, St. Louis, […], dissolved in 1 M trehalose) or heat-inactivated chABC protein as a vehicle (chABC in 1 M trehalose was heat-inactivated at 85° C. for 45 mins, as described previously by Alonge et al., 2020) in a total volume of 150 nl/side. To pulse the CSPG-ECM within the ARC or RSG, mice received bilateral (unless stated otherwise) administration of biotinylated WFA (0.3 μg/side, in a volume of 150 nl). To disrupt IR in AgRP neurons, 12-week HFHS fed AgRP-Cas9 mice were stereotaxically injected with AAVs expressing U6-driven guide RNA's targeting the InsR gene or a scrambled sequence (5′ GTGTAGTTCGACCATTCGTG ′3 (SEQ ID NO: 14)) alongside a CAG driven mCherry FLEX switch. Unless otherwise stated injections were bilaterally into the ARC (coordinates, bregma: anterior-posterior, −1.70 mm; dorsal-ventral, −5.85 mm; lateral, +/−0.18 mm, 200 nl/side) or into the RSG (coordinates, bregma: anterior-posterior, −1.40 mm; dorsal-ventral, −1.80 mm; lateral, +/−0.50 mm, 200 nl/side). WFA-biotin was injected unilaterally into the cc (coordinates, bregma: anterior-posterior, −1.40 mm; dorsal-ventral, −5.80 mm; lateral, +/−0.20 mm, 200 nl/side)
To generate AAV-gScrambled (pAAV-U6>mScramble-[…] (SEQ ID NO: 14))-CAG>LL:rev(mCherry):rev(LL):WPRE) and AAV-gIR (pAAV[-U6>mInsr[gRNA-[…] (SEQ ID NO: 15)]-U6>mInsr[gRNA-[…] (SEQ ID NO: 16)]-CAG>LL:rev(mCherry):rev(LL):WPRE) viral vectors, sgRNAs were first designed using online CRISPR tools (http://crispr.mit.edu and http://chopchop.cbu.uib.no/). […] For AAV-gScrambled a pUp-U6>Scramble gRNA vector was generated using the Gibson assembly of a pDONR P4-P1R backbone and primers 5′ […] ′3 (SEQ ID NO: 17) and 5′ […] ′3 (SEQ ID NO: 18). For AAV-gIR a pUp-U6>mInsr[gRNA-[…] (SEQ ID NO: 15)]-U6>mInsr[gRNA-[…] (SEQ ID NO: 16)] gRNA vector was generated using the Gibson assembly of a AarI digested pUp-U6-gRNA-AarI-Stuffer-AarI backbone and primers 5′ […] ′3 (SEQ ID NO: 19) and 5′ […] ′3 (SEQ ID NO: 20). For both AAV-gScrambled and AAV-gIR the p-Up vectors were cloned alongside pDown-CAG and pTail-LL:rev(mCherry):rev(LL) to generate the final vectors by LR reaction using the Gateway method. AAV vectors were packaged into the AAV-DJ/8 steotype at a titre of >2 10^13 GC/ml). All vector cloning and AAV packaging was carried out by VectorBuilder (Chicago, IL).
Under isoflurane anaesthetic 12-week HFHS fed C57BL/6J or AgRP-Cas9 mice were implanted stereotaxically with guide cannulas into the right lateral ventricle (0.2 mm posterior, 1.0 mm lateral from bregma). Guide cannula was positioned 1.3 mm above the injection site (1 mm ventral to the surface of the skull). AgRP-Cas9 mice were treated with either AAV-gScrambled or AAV-gIR and underwent guide cannula placement 7 days post AAV administration. Mice were administered I.C.V. vehicle (ddH2O), fluorosamine (100 μg/animal/day or 250 μgl/animal/day) in a volume of 2 μl/animal and all compounds were delivered approximately 1 h before lights off (7 pm).

Test [2] deals with 12-week HFHS fed obese mice. The test is described as follows: I.C.V. fluorosamine in obese mice: glucose tolerance and hyperinsulinemic-euglycemic clamps. It is filed as in vivo, C57BL/6J mice. As to the method: For hyperinsulinemic-euglycemic clamps, mice were anesthetised under isoflurane and the right jugular vein was catheterised for infusions, as described previously by Dodd et al., 2018. Catheters were attached to an implant button (BMSW25, RWD Life Sciences, Shenzhen, China). Implant buttons were capped allowing for group mousing of mice and catheters were kept patent by flushing daily with 40 μL saline containing 200 units/mL heparin. On the day of the experiment, food was removed at 7:00 A.M. After 3.5 h fasting, a primed (1 min, 1.25 uCi/min) continuous infusion (0.05 uCi/min) of [3-3H]glucose (NET331A001MC, PerkinElmer, MA) was administered to measure whole-body glucose turnover, as described previously by Dodd et al., 2018. […]
Metabolic measurements were undertaken in the Melbourne Mouse Metabolic Phenotyping Platform (The University of Melbourne, Australia). […] The areas under glucose excursion curves were determined and expressed as mmol/l×min. Fasted (12 h fast) plasma insulin or glucose levels were determined using a Rat/Mouse Insulin ELISA (EZRMI-13K, Merck Millipore, CA) or an Accu-Check glucometer respectively. The HOMA-IR was calculated using the equation [(glucose×insulin)/405]. Adiposity was measured using TD-NMR minispec (Bruker Optics Inc., Billerica, MA). […]

Test [3] relates to diet-induced obese mice. The test is described as follows: I.C.V. PZ6005 and/or S.C. liraglutide: I.P. GTT. It is filed as in vivo, C57BL/6j mice. As to conditions: day 14; 6 hours fasted; compared with the control treatment. As to the method: Metabolic measurements were undertaken in the Melbourne Mouse Metabolic Phenotyping Platform (The University of Melbourne, Australia). Glucose tolerance tests were performed on 6 h fasted conscious mice respectively by injecting D-glucose (2 mg/g of lean body mass and 1 mg/g lean mass for db/db and HFHS+STZ mice) into the peritoneal cavity and measuring glucose in tail blood immediately before and at 15, 30, 45, 60, 90 and 120 min after injection using an Accu-Check glucometer (Roche, Germany). The areas under glucose excursion curves were determined and expressed as mmol/l×min. Fasted (12 h fast) plasma insulin or glucose levels were determined using a Rat/Mouse Insulin ELISA (EZRMI-13K, Merck Millipore, CA) or an Accu-Check glucometer respectively. The HOMA-IR was calculated using the equation [(glucose×insulin)/405]. Adiposity was measured using TD-NMR minispec (Bruker Optics Inc., Billerica, MA).

Setting [4] is: AAV-gScrambled AgRP-Cas9 mice, 100 μg/animal I.C.V. daily for 10 days.

SMILES strings stand for the structures.

With `CC(=O)NC1C(OC(C)=O)OC(COC(C)=O)[C@@H](F)C1OC(C)=O` (stereo partly drawn) [PZ6005, per-O-acetylated-4-F-N-acetylglucosamine], the positive metabolic outcomes in test [1] (AAV-IR AgRP-Cas9 mice) was “mitigated, at least in part”. For the same compound, in test [1] (setting [4]), the adiposity entry is “reduced adiposity”, the body weight entry was “promoted weight loss”, the caloric intake result was “attenuated caloric intake” and the energy expenditure entry is on record as “enhanced energy expenditure”. The glycaemic control result in test [1] (setting [4]) is listed as “improved glycaemic control”. In addition, the “whole-body insulin sensitivity (GIR)” value in test [2] (hyperinsulinemic-euglycemic clamps, weight matched obese mice, daily for 3 days I.C.V.) is reported as “enhancement”. Moreover, the glucose tolerance result in test [2] (obese mice, I.C.V. for 10 days) is “improved glucose tolerance”. Besides, in test [3], the “glucose excursion (I.P. GTT)” value is reported as “reduced glucose excursion”.
